The record followed here is patent publication US20220257774A1, “AROMATIC AMINE AR AHD BET TARGETING PROTEIN DEGRADATION CHIMERA COMPOUND AND USE” (HINOVA PHARMACEUTICALS INC., priority 2019, published 2022).

For one assay, the system named is 22RV1 cells. The assay can be described thus: Inhibition of the proliferation of drug-resistant prostate cancer cell 22RV1 (CCK-8). As to conditions: Homo sapiens; 22RV1 cells (enzalutamide-resistant), same method. Type of assay: cell-based. The protocol: (1) Experimental materials and instruments: LNCaP/AR cell line and 22RV1 cell line (provided by Sichuan Kangcheng Biotechnology Co., Ltd.) Fetal bovine serum FBS (Gibco, Cat. No. 10099-141) 0.01M PBS (Biosharp, Cat. No. 162262) RIPM1640 medium (Hyclone, Cat. No. 308090.01) Penicillin-Streptomycin (Hyclone, Cat. No. SV30010) Cell counting kit-8 (Signalway Antibody, Cat. No. CP002) DMSO (Sigma, Cat. No. D5879) Centrifuge Tube, 15 ml (Excell Bio, Cat. No. CS015-0001) Cell Culture Dish, (Excell Bio, Cat. No. CS016-0128) 96-well cell culture plate (Corning, Cat. No. 3599) Microplate reader (Thermo Multiskan MK3 type)
a. Preparation of Buffer Cell culture medium: RIPM1640 medium, 10% FBS, 1% Pen Strep: PBS buffer: PBS powder was dissolved in 2 L of ultrapure water and sterilized. b. Experimental Procedures 1) LNCaP/AR cells were subcultured in cell culture media, and then the cells in good growth condition were seeded in a 96-well plate at 80 μL/well (1000 cells/well), and cultured overnight in a 37° C., 5% CO2 cell incubator. 2) The drug was prepared into a 10 mM stock solution with dimethyl sulfoxide (DMSO). Prior to use, the stock solution was diluted in a ratio of […] with DMSO, and then diluted at a 3-fold gradient to obtain 9 serial concentrations. Then, each concentration of compound was further diluted in a ratio of 1:200 with the culture medium (to ensure that the DMSO concentration in the culture system was 0.1%), and two wells were set for each concentration. 20 μL of the diluted compound solution was added to the well of the cell culture (with a final concentration of 10 μM, 3.3 μM, 1.1 μM . . . ), and then the plate was gently tapped to thoroughly mix. In addition, the experiment included 3 negative control wells only containing cells and 3 blank control wells only containing culture medium (6 wells were each added with DMSO diluted in a ratio of 1:200 with 20 μL of culture medium). c. Result Detection: 1) After culturing for 6 days, 10 μL of CCK-8 was added to each well, and the plate was further incubated for 1 h in a 37° C., 5% CO2 cell incubator. 2) The absorbance (OD value) was measured at 450 nm with a multifunctional microplate reader. 3) The data was analyzed by the Dose-response-inhibition equation in the software GraphPad Prism5, and the IC50 value was obtained. 2. Biological assay of the inhibition on the proliferation of other drug-resistant prostate cancer cells
The same test method was used to determine the inhibitory activity of the compound according to the present invention against drug-resistant prostate cancer cell 22RV1.

The test system of another assay is LNCaP/AR cells. The experiment in a line: Inhibition of the proliferation of LNCap/AR cells (CCK-8). Type of assay: cell-based. The settings on record: 144 h, read-out: LNCap/AR IC50. The method, boiled down:
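LNCaP/AR cells (1000/well, RPMI1640 + 10% FBS) were treated for 6 days at 37 °C with 9-point 3-fold dilutions from 10 μM final, 0.1% DMSO, in duplicate. Viability was read by CCK-8 absorbance at 450 nm after 1 h, and IC50 came from a dose-response-inhibition fit.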

[1] abbreviates: LNCaP/AR cells, 6 days culture, CCK-8.

Where two headings read alike, the source gives them in different places.

Regarding `Cc1ccc(-c2c(C)noc2C)cc1N(CCCC1CCN(c2ccc3c(c2)C(=O)N(C2CCC(=O)NC2=O)C3)CC1)c1ccc(C2(C#N)CC2)cc1` (centres unmarked) [Compound 31, 1-(4-((5-(3,5-Dimethylisoxazol-4-yl)-2-methylphenyl)(3-(1-(2-(2,6-dioxopiperidin-3-yl)-3-oxoisoindolin-5-yl)piperidin-4-yl)propyl)amino)phenyl)cyclopropane-1-nitrile], the IC50 with 22RV1 cells is below 0.1 µM; in the assay with LNCaP/AR cells (setting [1]), 0.101 to 0.5 µM.
`Cc1ccc(-c2c(C)noc2C)cc1N(CCCC1CCN(c2ccc3c(c2)CN(C2CCC(=O)NC2=O)C3=O)CC1)c1ccc(C2(C#N)CC2)cc1` (centres unmarked) [Compound 32, 1-(4-((5-(3,5-Dimethylisoxazol-4-yl)-2-methylphenyl)(3-(1-(2-(2,6-dioxopiperidin-3-yl)-1-oxoisoindolin-5-yl)piperidin-4-yl)propyl)amino)phenyl)cyclopropane-1-nitrile]: the IC50 with 22RV1 cells is below 0.1 µM; in the assay on LNCaP/AR cells (setting [1]) it was 0.101 to 0.5 µM.
The like results for `Cc1ccc(-c2c(C)noc2C)cc1N(c1ccc(C2(C#N)CC2)cc1)C1CN(CC2CCN(c3ccc4c(c3)C(=O)N(C3CCC(=O)NC3=O)C4=O)CC2)C1` (centres unmarked) [Compound 34, 1-(4-((5-(3,5-Dimethylisoxazol-4-yl)-2-methylphenyl) (1-((1-(2-(2,6-dioxopiperidin-3-yl)-1,3-dioxoisoindolin-5-yl)piperidin-4-yl)methyl)azetidin-3-yl)amino)phenyl)cyclopropane-1-nitrile] were, in that order, above 2 µM and above 2 µM.
The like results for `Cc1ccc(-c2c(C)noc2C)cc1N(c1ccc(C2(C#N)CC2)cc1)C1CN(c2ccc3c(c2)C(=O)N(C2CCC(=O)NC2=O)C3=O)C1` (centres unmarked) [Compound 35, 1-(4-((5-(3,5-Dimethylisoxazol-4-yl)-2-methylphenyl)(1-(2-(2,6-dioxopiperidin-3-yl)-1,3-dioxoisoindolin-5-yl)azetidin-3-yl)amino)phenyl)cyclopropane-1-nitrile] were, in that order, above 2 µM and above 2 µM.
In the case of `Cc1ccc(-c2c(C)noc2C)cc1N(CC1CC(Nc2cc3c(cc2F)CN(C2CCC(=O)NC2=O)C3=O)C1)c1ccc(C2(C#N)CC2)cc1` (centres unmarked) [Compound 38], the IC50 in the assay with 22RV1 cells was 0.501 to 2 µM; with LNCaP/AR cells (setting [1]), above 2 µM.
The like results for `Cc1ccc(-c2c(C)noc2C)cc1N(CCCCNc1cc2c(cc1F)C(=O)N(C1CCC(=O)NC1=O)C2=O)c1ccc(C2(C#N)CC2)cc1` (centres unmarked) [Compound 40] were, in that order, 0.101 to 0.5 µM and 0.501 to 2 µM.
The like results for `Cc1ccc(-c2c(C)noc2C)cc1N(CCCCNc1ccc2c(c1)C(=O)N(C1CCC(=O)NC1=O)C2=O)c1ccc(C2(C#N)CC2)cc1` (centres unmarked) [Compound 41, 1-(4-((5-(3,5-Dimethylisoxazol-4-yl)-2-methylphenyl)(4-((2-(2,6-dioxopiperidin-3-yl)-1,3-dioxoisoindolin-5-yl)amino)butyl)amino)phenyl)cyclopropane-1-nitrile] were, in that order, below 0.1 µM and 0.101 to 0.5 µM.
The like results for `Cc1ccc(-c2c(C)noc2C)cc1N(CCCCNc1cc2c(cc1F)CN(C1CCC(=O)NC1=O)C2=O)c1ccc(C2(C#N)CC2)cc1` (centres unmarked) [Compound 42, 1-(4-((5-(3,5-Dimethylisoxazol-4-yl)-2-methylphenyl)(4-((2-(2,6-dioxopiperidin-3-yl)-6-fluoro-3-oxoisoindolin-5-yl)amino)butyl)amino)phenyl)cyclopropane-1-nitrile] were, in that order, 0.501 to 2 µM and 0.101 to 0.5 µM.
Consider `Cc1ccc(-c2c(C)n[nH]c2C)cc1N(CCCCCOCC(=O)N[C@H](C(=O)N1C[C@H](O)C[C@H]1C(=O)N[C@@H](C)c1ccc(-c2scnc2C)cc1)C(C)(C)C)c1ccc(C#N)c(Cl)c1` [Compound 44, (2S,4R)-1-((S)-2-(2-((5-((3-chloro-4-cyanophenyl)(5-(3,5-dimethyl-1H-pyrazol-4-yl)-2-methylphenyl)amino)pentyl)oxy)acetylamino)-3,3-dimethylbutyryl)-4-hydroxy-N—((S)-1-(4-(4-methylthiazol-5-yl)phenyl)ethyl)pyrrolidinyl-2-formamide], for which the IC50 in the assay with 22RV1 cells was above 2 µM; in the assay on LNCaP/AR cells (LNCaP/AR), 0.101 to 0.5 µM.
Regarding `CC(=O)O[C@@H]1C[C@@H](C(=O)N[C@@H](C)c2ccc(-c3scnc3C)cc2)N(C(=O)[C@@H](NC(=O)COC2CN(CCN(c3ccc(-n4ccnc4)c(Br)c3)c3cc(-c4c(C)noc4C)ccc3C)C2)C(C)(C)C)C1` [Compound 101, (3R,5S)-1-((S)-2-(2-((1-(2-((3-Bromo-4-(1H-imidazol-1-yl)phenyl)(5-(3,5-dimethylisozazol-4-yl)-2-methylphenyl)amino)ethyl)azetidin-3-yl)oxy)acetylamino)-3,3-dimethylbutyryl)-5-(((S)-1-(4-(4-methylthiazol-5-yl)phenyl)ethyl)carbamoyl)pyrrolidine-3-yl acetate], the IC50 with LNCaP/AR cells (setting [1]) is above 2 µM.
On the same count and under the same terms, the value for `Cc1ccc(-c2c(C)noc2C)cc1N(CCCCCCNc1cccc2c1CN(C1CCC(=O)NC1=O)C2=O)c1ccc(-n2ccnc2)c(Br)c1` (centres unmarked) [Compound 118, 3-(4-((6-((3-Bromo-4-(1H-imidazol-1-yl)phenyl)(5-(3,5-dimethylisoxazol-4-yl)-2-methylphenyl)amino)hexyl)amino)-1-oxoisoindolin-2-yl)piperidine-2,6-dione] was above 2 µM; that for `Cc1ccc(-c2c(C)noc2C)cc1N(CCCC1CCN(CC(=O)N[C@H](C(=O)N2C[C@H](O)C[C@H]2C(=O)N[C@@H](C)c2ccc(-c3scnc3C)cc2)C(C)(C)C)CC1)c1ccc(-n2ccnc2)c(Br)c1` [Compound 141, (2S,4R)-1-((S)-2-(2-(4-(3-((3-bromo-4-(1H-imidazol-1-yl)phenyl)(5-(3,5-dimethylisoxazol-4-yl)-2-methylphenyl)amino)propyl)piperidin-1-yl)acetamido)-3,3-dimethylbutyryl)-4-hydroxy-N—((S)-1-(4-(4-methylthiazol-5-yl)phenyl)ethyl)tetrahydropyrrole-2-amide] was 0.101 to 0.5 µM; that for `CC(=O)O[C@@H]1C[C@@H](C(=O)N[C@@H](C)c2ccc(-c3scnc3C)cc2)N(C(=O)[C@@H](NC(=O)CN2CCC(CCCN(c3ccc(-n4ccnc4)c(Br)c3)c3cc(-c4c(C)noc4C)ccc3C)CC2)C(C)(C)C)C1` [Compound 142, (3R,5S)-1-((S)-2-(2-(4-(3-((3-Bromo-4-(1H-imidazol-1-yl)phenyl)(5-(3,5-4-yl)-2-methylphenyl)amino)propyl)piperidin-1-yl)acetamido)-3,3-dimethylbutyryl)-5-(((S)-1-(4-(4-methylthiazol-5-yl)phenyl)ethyl)carbamoyl)pyrrolidinyl-3-acetate] was 0.101 to 0.5 µM.
Still for that read-out and setting: to `Cc1ccc(-c2c(C)noc2C)cc1N(CCCCCOCC(=O)Nc1cccc2c1CN(C1CCC(=O)NC1=O)C2=O)c1ccc(C2(C#N)CC2)cc1` (centres unmarked) [Compound 144] belongs 0.101 to 0.5 µM.
Same read-out and setting: to `Cc1ccc(-c2c(C)noc2C)cc1N(CCCCCNc1cc2c(cc1F)C(=O)N(C1CCC(=O)NC1=O)C2=O)c1ccc(C2(C#N)CC2)cc1` (centres unmarked) [Compound 148, 1-(4-((5-(3,5-Dimethylisoxazol-4-yl)-2-methylphenyl)(5-((2-(2,6-dioxopiperidin-3)-6-fluoro-1,3-dicarbonylisoindolin-5))amino)pentyl)amino)phenylcyclopropanecarbonitrile] belongs 0.501 to 2 µM; to `Cc1ccc(-c2c(C)noc2C)cc1N(C[C@H]1CC[C@H](CNc2cc3c(cc2F)C(=O)N(C2CCC(=O)NC2=O)C3=O)CC1)c1ccc(C2(C#N)CC2)cc1` (some centres unmarked) [Compound 150], 0.501 to 2 µM; to `Cc1ccc(-c2c(C)noc2C)cc1N(CCCCCNc1ccc2c(c1)C(=O)N(C1CCC(=O)N(C)C1=O)C2=O)c1ccc(C2(C#N)CC2)cc1` (centres unmarked) [Compound 151, 1-(4-((5-(3,5-Dimethylisoxazol-4-yl)-2-methylphenyl)(5-((2-(1-methyl-2,6-dioxopiperidin-3)-1,3-dicarbonylisoindolin-5-yl))amino)pentyl)amino)phenylcyclopropanecarbonitrile], above 2 µM.
